Measured values published in US7166725B2, “Benzo[d]isoxazol-3-ol DAAO inhibitors” (Sepracor Inc., priority 2003, dated 2007).

molecular target: T1, D-Serine's binding site on the NMDA receptor (Rattus norvegicus, UniProt P35439); assay: NMDA receptor affinity, [3H]MDL105,519 radioligand binding, rat cerebral cortex membranes; conditions: tested at 100 μM, read-out: inhibition of specific [3H]MDL105,519 binding
T1 construct: membranes prepared from rat cerebral cortex; from tissue; host or cells: rat cerebral cortex membranes
Method: To measure the affinity of the compounds reported herein for D-Serine's binding site on the NMDA receptor (also known as the “Glycine site” or the “strychnine-insensitive glycine site”), a radioligand-binding assay was performed with membranes prepared from rat cerebral cortex. The radioactive ligand was [3H]MDL105,519. The amount of radioactivity displaced by the compounds was assessed by scintillation counting. Non-specific binding is accounted for in the presence of 1 mM Glycine. Affinities are calculated from the values of % inhibition of specific [3H]MDL105,519 binding by the test compounds.

SMILES	inhibition at 100 µM [%]
O=C(O)c1cc2ccccc2[nH]1 [INDOLE-2-CARBOXYLIC ACID, reference compound]	77
Oc1noc2cc(Cl)ccc12 [drawing 47]	< 10

tested on: not listed separately; assay: Rat brain uptake, left carotid artery perfusion; format: in vivo; conditions: 30 seconds perfusion in phosphate buffered saline pH 7.4; N of 4 rats
Source text: Experiments that evaluate the rat brain penetration of test compounds use a perfusion system where the left carotid artery is cannulated and the branch arteries are tied off. The test compound plus internal controls are perfused for 30 seconds into the left hemisphere in phosphate buffered saline at pH 7.4. The internal controls are atenolol (with low brain uptake) and antipyrine (with high brain uptake). After a 30 second washout with perfusate, the brain is removed surgically. The left hemisphere is homogenized; test compounds (plus internal controls) are extracted from brain homogenate, and analyzed using LC/MS/MS to determine the concentration of test compound and internal controls in the brain.

SMILES	Rat Brain Uptake Rate [pmol/g brain/sec]
Cc1ccc2c(O)noc2c1 [drawing 48]	199
Oc1noc2cc(Cl)ccc12 [drawing 49]	162

molecular target: Purified pig DAAO (Sus scrofa, UniProt P00371); assay: In vitro measurements of DAAO activity (Amplex Red H2O2 fluorescence; alternative phenylglycine absorbance assay); format: biochemical; conditions: read-out: Inhibition of DAAO, IC50
Sequence (P00371 whole entry): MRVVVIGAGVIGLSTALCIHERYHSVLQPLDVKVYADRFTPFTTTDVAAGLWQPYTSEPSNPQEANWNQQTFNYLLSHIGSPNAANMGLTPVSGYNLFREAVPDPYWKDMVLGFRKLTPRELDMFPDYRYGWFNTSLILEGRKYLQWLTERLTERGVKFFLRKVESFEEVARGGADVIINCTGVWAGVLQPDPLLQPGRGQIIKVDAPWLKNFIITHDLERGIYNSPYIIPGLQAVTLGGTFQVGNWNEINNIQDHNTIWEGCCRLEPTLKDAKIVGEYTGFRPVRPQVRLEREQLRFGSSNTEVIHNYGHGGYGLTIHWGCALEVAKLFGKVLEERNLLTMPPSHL
Method: Purified pig DAAO, added to a buffered mixture of 50 mM D-Serine produces H202 in stoichiometric amounts for each D-Serine molecule oxidized. H202 production can be monitored with a commercially available dye Amplex Red, which in the presence of H202, is converted to the fluorescent product resorufin. For each described inhibitor, the fluorescence was also measured during additions of 80 μM H202 in the absence of DAAO, to control for artifactual inhibition of the dye conversion, and to quantify the amount of H202 produced. In an alternative assay of DAAO activity, the purified pig DAAO is added to buffered mixture of 1 mM phenylglycine in the presence of compounds. The activity of DAAO is monitored spectrophotometrically by its enzymatic conversion of phenylglycine to benzoylformic acid with optical absorption at 252 nm.
Inhibitors of DAAO's enzymatic cycle were serially diluted to reduce the level of inhibition. The parameters of a non-linear equation were adjusted to fit the resulting series of inhibition levels to extrapolate the concentration of compound where 50% inhibition is achieved (IC50). These numbers are averaged for the number (n) of independent measurements (on separate days) of the inhibition.

SMILES	IC50 [µM]
Oc1noc2cc(OCc3ccccc3)ccc12	> 100
Oc1ccc2onc(O)c2c1	> 100
Oc1noc2c(O)cccc12	< 100
COc1cccc2onc(O)c12	< 100
O=C(Nc1ccc2c(O)noc2c1)OCc1ccccc1	> 100
COc1cccc2c(O)noc12	< 100
Oc1cccc2onc(O)c12	> 100
N#Cc1ccc2onc(O)c2c1	< 100
Cc1cccc2c(O)noc12	> 100
Oc1noc2ccc(CCc3ccccc3)cc12	< 100
COc1ccc2onc(O)c2c1	< 10
O=C(O)c1cc2ccccc2[nH]1 [INDOLE-2-CARBOXYLIC ACID, reference compound]	< 10
Oc1noc2cc(Cl)ccc12 [drawing 38]	< 0.1
Oc1noc2ccc(I)cc12	< 10
Oc1noc2c(Cl)cccc12	> 100
Oc1noc2ccc(OCc3ccccc3)cc12	< 10
O=C(Nc1ccc2onc(O)c2c1)OCc1ccccc1	> 100
Oc1noc2c(F)cccc12	< 100
Oc1ccc2c(O)noc2c1	< 10
Oc1noc2cccc(F)c12	< 10

The remaining lines, values ahead:

IC50 [µM]	SMILES
< 0.1	Cc1cc2onc(O)c2cc1Br
< 10	O=C(O)c1ccc[nH]1 [PYRROLE-2-CARBOXYLIC ACID, reference compound]
< 10	COc1ccc2c(O)noc2c1
< 1	Oc1noc2cc(F)ccc12
< 0.1	Cc1cc2onc(O)c2cc1I
< 1	Oc1noc2ccc(Cl)cc12
< 1	Oc1noc2cc(Br)ccc12
< 1	Oc1noc2ccc(Br)cc12
< 0.1	Oc1noc2cc(Br)c(Br)cc12
< 10	Cc1ccc2onc(O)c2c1
< 1	Oc1noc2ccccc12
< 0.1	Oc1noc2cc(Cl)c(Br)cc12
< 0.1	Cc1cc2onc(O)c2cc1Cl
< 1	Oc1noc2ccc(F)cc12
< 1	Cc1ccc2c(O)noc2c1 [drawing 22]
< 0.1	Oc1noc2cc(Cl)c(Cl)cc12
< 0.1	Oc1noc2cc(Br)c(Cl)cc12
